row,melting point [°C],SMILES
1,127 to 128,"O=C(O)Cc1ccc(OCCCc2cc(-c3ccc(C(F)(F)F)cc3)no2)cc1 [Example 1, [4-(3-{3-[4-(trifluoromethyl)phenyl]-5-isoxazolyl}propoxy)phenyl]acetic acid]"
2,221 to 222,"O=C(O)c1ccc(OCCCc2cc(-c3ccc(C(F)(F)F)cc3)no2)cc1 [Example 2, 4-(3-{3-[4-(trifluoromethyl)phenyl]-5-isoxazolyl}propoxy)benzoic acid]"
3,126 to 127,"O=C(O)Cc1cccc(OCCCc2cc(-c3ccc(C(F)(F)F)cc3)no2)c1 [Example 3, [3-(3-{3-[4-(trifluoromethyl)phenyl]-5-isoxazolyl}propoxy)phenyl]acetic acid]"
4,133 to 134,"O=C(O)c1cccc(OCCCc2cc(-c3ccc(C(F)(F)F)cc3)no2)c1 [Example 4, 3-(3-{3-[4-(trifluoromethyl)phenyl]-5-isoxazolyl}propoxy)benzoic acid]"
5,174 to 175,"O=C(O)CCc1ccc(OCCCc2cc(-c3ccc(C(F)(F)F)cc3)no2)cc1 [Example 5, 3-[4-(3-{3-[4-(trifluoromethyl)phenyl]-5-isoxazolyl}propoxy)phenyl]propionic acid]"
6,132 to 133,"O=C(O)c1ccccc1OCCCc1cc(-c2ccc(C(F)(F)F)cc2)no1 [Example 6, 2-(3-{3-[4-(trifluoromethyl)phenyl]-5-isoxazolyl}propoxy)benzoic acid]"
7,162 to 163,"Cn1nc(OCCCc2cc(-c3ccc(C(F)(F)F)cc3)no2)cc1C(=O)O [Example 7, 1-methyl-3-(3-{3-[4-(trifluoromethyl)phenyl]-5-isoxazolyl}propoxy)-1H-pyrazole-5-carboxylic acid]"
8,145 to 146,"O=C(O)c1cc(OCCCc2cc(-c3ccc(C(F)(F)F)cc3)no2)nn1-c1ccccc1 [Example 8, 1-phenyl-3-(3-{3-[4-(trifluoromethyl)phenyl]-5-isoxazolyl}propoxy)-1H-pyrazole-5-carboxylic acid]"
9,195 to 196,"Cc1nn(-c2ccc(C(F)(F)F)cn2)cc1COc1ccc(CCC(=O)O)cc1 [Example 9, 3-(4-{3-methyl-1-[5-(trifluoromethyl)-2-pyridyl]-1H-pyrazol-4-ylmethoxy}phenyl)propionic acid]"
10,138 to 139,"Cc1nn(-c2ccc(C(F)(F)F)cn2)cc1COc1ccc(OCC(=O)O)cc1 [Example 10, (4-{3-methyl-1-[5-(trifluoromethyl)-2-pyridyl]-1H-pyrazol-4-ylmethoxy}phenoxy)acetic acid]"
11,151 to 152,"CCOc1cc(OCc2cn(-c3ccc(C(F)(F)F)cn3)nc2C)ccc1CCC(=O)O [Example 19, 3-(2-ethoxy-4-{3-methyl-1-[5-(trifluoromethyl)-2-pyridyl]-1H-pyrazol-4-ylmethoxy}phenyl)propionic acid]"
12,102 to 103,"CC(C)c1nn(-c2ccc(C(F)(F)F)cn2)cc1CCCOc1cccc(CCC(=O)O)c1 [Example 23, 3-[3-(3-{3-isopropyl-1-[5-(trifluoromethyl)-2-pyridyl]-1H-pyrazol-4-yl}propoxy)phenyl]propionic acid]"
13,131 to 132,"CC(C)c1nn(-c2ccc(C(F)(F)F)cn2)cc1CCCOc1cc(CCC(=O)O)n(C)n1 [Example 25, 3-[3-(3-{3-isopropyl-1-[5-(trifluoromethyl)-2-pyridyl]-1H-pyrazol-4-yl}propoxy)-1-methyl-1H-pyrazol-5-yl]propionic acid]"
14,141 to 142,"CC(C)c1nn(-c2ccc(C(F)(F)F)cn2)cc1COc1cc(CCC(=O)O)n(C)n1 [Example 27, 3-(3-{3-isopropyl-1-[5-(trifluoromethyl)-2-pyridyl]-1H-pyrazol-4-ylmethoxy}-1-methyl-1H-pyrazol-5-yl)propionic acid]"
15,88 to 89,"CCOc1nn(-c2ccc(C(F)(F)F)cn2)cc1CCCOc1cccc(CCC(=O)O)c1 [Example 33, 3-[3-(3-{3-ethoxy-1-[5-(trifluoromethyl)-2-pyridyl]-1H-pyrazol-4-yl}propoxy)phenyl]propionic acid]"
16,208 to 209,"Cc1nn(-c2ccc(C(F)(F)F)cn2)cc1COc1cc(/C=C/C(=O)O)n(C)n1 [Example 37, (E)-3-(1-methyl-3-{3-methyl-1-[5-(trifluoromethyl)-2-pyridyl]-1H-pyrazol-4-ylmethoxy}-1H-pyrazol-5-yl)propenoic acid]"
17,80 to 81,"CCCc1nn(-c2ccc(C(F)(F)F)cn2)cc1CCCOc1cc(CCC(=O)O)n(C)n1 [Example 45, 3-[1-methyl-3-(3-{3-propyl-1-[5-(trifluoromethyl)-2-pyridyl]-1H-pyrazol-4-yl}propoxy)-1H-pyrazol-5-yl]propionic acid]"
18,100 to 101,"CCCc1nn(-c2ccc(C(F)(F)F)cn2)cc1CCCOc1ccccc1CC(=O)O [Example 47, [2-(3-{3-propyl-1-[5-(trifluoromethyl)-2-pyridyl]-1H-pyrazol-4-yl}propoxy)phenyl]acetic acid]"
19,137 to 138,"CCOc1nn(-c2ccc(C(F)(F)F)cn2)cc1CCCOc1cc(CCC(=O)O)n(C)n1 [Example 48, 3-[3-(3-{3-ethoxy-1-[5-(trifluoromethyl)-2-pyridinyl]-1H-pyrazol-4-yl}propoxy)-1-methyl-1H-pyrazol-5-yl]propanoic acid]"
20,134 to 135,"CCOc1nn(-c2ccc(C(F)(F)F)cn2)cc1CCOc1ccccc1CC(=O)O [Example 57, [2-(2-{3-ethoxy-1-[5-(trifluoromethyl)-2-pyridinyl]-1H-pyrazol-4-yl}ethoxy)phenyl]acetic acid]"

# Further lines, the molecule ahead of its results:
row,SMILES,melting point [°C]
1,"O=C(O)CCc1cc(OCCCCc2cc(-c3ccc(C(F)(F)F)cc3)no2)nn1-c1ccccc1 [Example 11, 3-[1-phenyl-3-(4-{3-[4-(trifluoromethyl)phenyl]-5-isoxazolyl}butoxy)-1H-pyrazol-5-yl]propionic acid]",139 to 140
2,"O=C(O)c1ccc(OCCCCc2cc(-c3ccc(C(F)(F)F)cc3)no2)cc1 [Example 12, 4-(4-{3-[4-(trifluoromethyl)phenyl]-5-isoxazolyl}butoxy)benzoic acid]",170 to 171
3,"O=C(O)Cc1ccc(OCCCCc2cc(-c3ccc(C(F)(F)F)cc3)no2)cc1 [Example 13, [4-(4-{3-[4-(trifluoromethyl)phenyl]-5-isoxazolyl}butoxy)phenyl]acetic acid]",125 to 126
4,"O=C(O)CCc1ccc(OCCCCc2cc(-c3ccc(C(F)(F)F)cc3)no2)cc1 [Example 14, 3-[4-(4-{3-[4-(trifluoromethyl)phenyl]-5-isoxazolyl}butoxy)phenyl]propionic acid]",130 to 131
5,"CC(C)(Oc1ccc(OCCCCc2cc(-c3ccc(C(F)(F)F)cc3)no2)cc1)C(=O)O [Example 15, 2-methyl-2-[4-(4-{3-[4-(trifluoromethyl)phenyl]-5-isoxazolyl}butoxy)phenoxy]propionic acid]",103 to 104
6,"O=C(O)Cc1cccc(OCCCCc2cc(-c3ccc(C(F)(F)F)cc3)no2)c1 [Example 16, [3-(4-{3-[4-(trifluoromethyl)phenyl]-5-isoxazolyl}butoxy)phenyl]acetic acid]",134 to 135
7,"O=C(O)Cc1ccccc1OCCCCc1cc(-c2ccc(C(F)(F)F)cc2)no1 [Example 17, [2-(4-{3-[4-(trifluoromethyl)phenyl]-5-isoxazolyl}butoxy)phenyl]acetic acid]",122 to 123
8,"CCOc1nn(-c2ccc(C(F)(F)F)cn2)cc1CCCOc1ccc(OC(C)(C)C(=O)O)cc1 [Example 18, 2-[4-(3-{3-ethoxy-1-[5-(trifluoromethyl)-2-pyridyl]-1H-pyrazol-4-yl}propoxy)phenoxy]-2-methylpropionic acid]",91 to 92
9,"CCOc1cc(OCCCCc2cc(-c3ccc(C(F)(F)F)cc3)no2)ccc1CCC(=O)O [Example 21, 3-[2-ethoxy-4-(4-{3-[4-(trifluoromethyl)phenyl]-5-isoxazolyl}butoxy)phenyl]propionic acid]",105 to 106
10,"Cc1nn(-c2ccc(C(F)(F)F)cn2)cc1COc1cccc(OC(C)(C)C(=O)O)c1 [Example 32, 2-methyl-2-(3-{3-methyl-1-[5-(trifluoromethyl)-2-pyridyl]-1H-pyrazol-4-ylmethoxy}phenoxy)propionic acid]",152 to 153
11,"Cc1nn(-c2ccc(C(F)(F)F)cn2)cc1COc1cc(CCC(=O)O)n(C)n1 [Example 38, 3-(1-methyl-3-{3-methyl-1-[5-(trifluoromethyl)-2-pyridyl]-1H-pyrazol-4-ylmethoxy}-1H-pyrazol-5-yl)propionic acid]",154 to 155
12,"CC(C)c1nn(-c2ccc(C(F)(F)F)cn2)cc1CCCCOc1cc(CCC(=O)O)n(C)n1 [Example 50, 3-[3-(4-{3-isopropyl-1-[5-(trifluoromethyl)-2-pyridinyl]-1H-pyrazol-4-yl}butoxy)-1-methyl-1H-pyrazol-5-yl]propanoic acid]",113 to 114
13,"CC(C)c1nn(-c2ccc(C(F)(F)F)cn2)cc1CCCCOc1ccccc1CC(=O)O [Example 52, [2-(4-{3-isopropyl-1-[5-(trifluoromethyl)-2-pyridinyl]-1H-pyrazol-4-yl}butoxy)phenyl]acetic acid]",125 to 126
14,"CC(C)c1nn(-c2ccc(C(F)(F)F)cn2)cc1CCCCOc1ccc(CC(=O)O)cc1 [Example 53, [4-(4-{3-isopropyl-1-[5-(trifluoromethyl)-2-pyridinyl]-1H-pyrazol-4-yl}butoxy)phenyl]acetic acid]",130 to 131
15,"CC(C)c1nn(-c2ccc(C(F)(F)F)cn2)cc1CCCCOc1cccc(OC(C)(C)C(=O)O)c1 [Example 54, 2-[3-(4-{3-isopropyl-1-[5-(trifluoromethyl)-2-pyridinyl]-1H-pyrazol-4-yl}butoxy)phenoxy]-2-methylpropanoic acid]",81 to 82
16,"CC(C)c1nn(-c2ccc(C(F)(F)F)cn2)cc1CCCCOc1ccc(CCC(=O)O)cc1 [Example 55, 3-[4-(4-{3-isopropyl-1-[5-(trifluoromethyl)-2-pyridinyl]-1H-pyrazol-4-yl}butoxy)phenyl]propanoic acid]",144 to 145
